One test deals with primary rat neurons. Kind of test: MAP2 ICC assay of Aβ-induced neurite degeneration. The following applies: compound 0.3, 3 or 15 μM, 90-minute pretreatment, 2.5 μM Aβ. Format: cell-based. The source says:
Primary neuron cultures: All animal procedures were approved by the Institutional Animal Care and Use Committee at the University of Alabama at Birmingham (UAB). As before (Rush, et al. (2020) Neurobiol Dis 134, 104668; Voskobiynyk, et al. (2020) eLife 9, e57354), primary rat neurons were isolated from timed-pregnant Sprague-Dawley rats. Briefly, dams were euthanized with isoflurane anesthesia asphyxiation, and hippocampal tissue was isolated from E19 embryos in Hibernate E, then digested in papain for 10 minutes at 37° C. Neurons were triturated into a single cell suspension in Neurobasal supplemented with B-27, L-Glutamine, and 10% FBS, then plated in 96-well plates coated with PDL and laminin at 30,000 neurons per well in 200 uL medium or in 24-well coated plates with or without coverslips at 50,000 per well. Cultures were maintained at 37° C. with 5% CO2. Twenty-four hours after plating (DIV1), two 50% media changes with Neurobasal plus B-27 and L-Glutamine without FBS, and 5 μM cytosine β-D-arabinofuranoside was added to prevent glial proliferation. […]
For the MAP2 ICC assay, neurons were fixed in 4% PFA and 4% sucrose at 37° C. for 30 minutes, then washed 3×5 minutes in PBS. […] Intact neurite length was measured in an unbiased, automated manner using Harmony software, averaged from four images from each well. […]

The target of the next test is Tau-SrcSH3 interaction (Homo sapiens (Human), UniProt P10636). Kind of test: Tau-Flag PLA, Tau-SrcSH3. The following applies: 15 μM, HEK-293 cells. Format: cell-based. Here is the method:
Tau-Flag PLA for Tau-SH3 interactions: To clone the SH3 constructs, a C-terminal Flag tag was added to the Tau construct using PCR, then the Tau sequence was replaced with the desired SH3 domain using In-Fusion HD cloning kit (Takara Bio). Next, an N-terminal GST tag was added to help expression using In-Fusion, resulting in GST-SH3-Flag plasmids. As a negative control, restriction enzymes were used to remove the FynSH3 from the FynSH3 construct, resulting in GST-Flag. All sequences were confirmed with Sanger sequencing, and expression in HEK-293 cells was verified by western blot and immunocytochemistry. Plating and experimental timeline was the same as above. Cells were transfected with 125 ng of Tau-mKate2 and 500 ng SH3 plasmid with 1.5 μL Fugene. compound no. 69 was applied to final concentration 15 μM. For Tau-SH3 PLA, we used Dako Tau (1:1000) and Flag (1:1000) primary antibodies.

The next test has as its system Tau, Fyn. Description: Western blot of Tau, Fyn and GAPDH levels in neurons. The following applies: 15 μM, 24 hours. Format: cell-based, rat. Here is the method:
Like before (Rush, et al. (2020) Neurobiol Dis 134, 104668), at DIV13, neurons were treated with 15 μM compound no. 69 or Vehicle. 24 hours later, cells were harvested in lysis buffer (50 mM Tris, 150 mM NaCl, 5 mM EDTA, 0.1% SDS, 0.1% Triton-X-100, and 0.5% sodium deoxycholate) and centrifuged to remove cellular debris. Samples were diluted in LDS and reducing agent and heated at 70° C. for 10 minutes. Samples were run on 4-12% bis-tris gels in MOPS buffer with 5 μg protein per well, determined by a Bradford assay, then transferred to a PDVF membrane. Membrane was blocked for 1 hour in 50% Odysey blocking buffer then probed overnight with Fyn3 (1:1000) antibody at 4° C. Membrane was washed 3× in TBST, then incubated for 1 hour at RT in IRDye 700 or 800 conjugated secondary and scanned on an Odyssey Scanner. Images were quantified in ImageJ. After probing for GAPDH (1:5,000), the blot was stripped with Restore PLUS Western Blot Sripping Buffer for 30 minutes at room temperature, washed in TBST, and probed for DAKO Tau (1:10,000).

The target of a further test is 97 kinases. Description: Eurofins DiscoverX ScanEDGE kinase panel. The test is classed as biochemical. The following applies: compound no. 69 at 3 μM; saracatinib stock 30 μM = 1000× testing concentration; activity = <35% of control. The source says:
69 and compound no. […] Since Fyn was not included in that panel, a custom panel was completed for Fyn kinase activity.

Entries after “also recorded” stand apart in the source; their conditions may differ.

Sequence of Tau-SrcSH3 interaction (P10636 other isoform, or with tags, fused parts or gaps): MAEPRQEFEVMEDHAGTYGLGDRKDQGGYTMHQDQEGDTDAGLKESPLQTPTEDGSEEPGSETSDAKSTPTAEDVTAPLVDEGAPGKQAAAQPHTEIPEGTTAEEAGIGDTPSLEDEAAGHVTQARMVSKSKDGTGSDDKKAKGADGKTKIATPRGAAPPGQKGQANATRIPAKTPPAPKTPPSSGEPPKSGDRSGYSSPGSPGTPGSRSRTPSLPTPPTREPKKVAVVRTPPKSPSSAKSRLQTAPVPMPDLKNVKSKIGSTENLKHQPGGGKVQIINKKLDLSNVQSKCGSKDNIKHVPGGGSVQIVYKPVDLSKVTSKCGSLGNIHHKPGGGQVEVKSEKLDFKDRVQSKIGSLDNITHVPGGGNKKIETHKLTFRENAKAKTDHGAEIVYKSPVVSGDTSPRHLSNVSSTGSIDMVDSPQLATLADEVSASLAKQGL

Take `O=C(CCN1C(=O)CSc2ccccc21)Nc1nnc(-c2ccccn2)[nH]1` [compound no. 55]: the “Aβ-induced neurite degeneration, MAP2 assay” value with primary rat neurons was “prevented Aβ-induced neurite degeneration; also recorded: ameliorates Aβ-induced neurite degeneration”.
Turning to `O=C(CN1CCOc2ccccc21)Nc1nnc(-c2ccccn2)[nH]1` [compound no. 69], the “Tau-SrcSH3 interaction, Tau-Flag PLA” value at Tau-SrcSH3 interaction is “slightly but insignificantly inhibited; also recorded: does not inhibit Tau-SrcSH3 interaction”. Moreover, the “Aβ-induced neurite degeneration, MAP2 assay” value in the test with primary rat neurons is “prevented; also recorded: ameliorates Aβ-induced neurite degeneration”. Also, in the test on Tau, Fyn, the “Tau, Fyn (and GAPDH) levels in primary neurons” value is reported as “did not lower Tau or Fyn levels; also recorded: does not reduce Tau, Fyn, or GAPDH levels”. For the same compound, the “kinase inhibition, panel of 97 kinases” value on 97 kinases was “did not inhibit Fyn or any of the 97 kinases; also recorded: is not a kinase inhibitor”.

These data come from patent publication US20250367209A1 (SOUTHERN RESEARCH INSTITUTE, priority 2022, published 2025).
